The values that follow come from patent publication US10618901B2 (GlaxoSmithKline Intellectual Property Development Limited, priority 2014, dated 2020).

The target of this experiment is T1, 6HIS-Tev-LRRK2 (1326-2527) (Homo sapiens, UniProt Q5S007).
T1 construct: A LRRK2 cDNA encoding residues 1326-2527 was received from Dundee University; made in house; host or cells: Spodoptera frugiperda Sf9 (baculovirus, pFB-HTb)
T1 sequence (Q5S007 1326-2527): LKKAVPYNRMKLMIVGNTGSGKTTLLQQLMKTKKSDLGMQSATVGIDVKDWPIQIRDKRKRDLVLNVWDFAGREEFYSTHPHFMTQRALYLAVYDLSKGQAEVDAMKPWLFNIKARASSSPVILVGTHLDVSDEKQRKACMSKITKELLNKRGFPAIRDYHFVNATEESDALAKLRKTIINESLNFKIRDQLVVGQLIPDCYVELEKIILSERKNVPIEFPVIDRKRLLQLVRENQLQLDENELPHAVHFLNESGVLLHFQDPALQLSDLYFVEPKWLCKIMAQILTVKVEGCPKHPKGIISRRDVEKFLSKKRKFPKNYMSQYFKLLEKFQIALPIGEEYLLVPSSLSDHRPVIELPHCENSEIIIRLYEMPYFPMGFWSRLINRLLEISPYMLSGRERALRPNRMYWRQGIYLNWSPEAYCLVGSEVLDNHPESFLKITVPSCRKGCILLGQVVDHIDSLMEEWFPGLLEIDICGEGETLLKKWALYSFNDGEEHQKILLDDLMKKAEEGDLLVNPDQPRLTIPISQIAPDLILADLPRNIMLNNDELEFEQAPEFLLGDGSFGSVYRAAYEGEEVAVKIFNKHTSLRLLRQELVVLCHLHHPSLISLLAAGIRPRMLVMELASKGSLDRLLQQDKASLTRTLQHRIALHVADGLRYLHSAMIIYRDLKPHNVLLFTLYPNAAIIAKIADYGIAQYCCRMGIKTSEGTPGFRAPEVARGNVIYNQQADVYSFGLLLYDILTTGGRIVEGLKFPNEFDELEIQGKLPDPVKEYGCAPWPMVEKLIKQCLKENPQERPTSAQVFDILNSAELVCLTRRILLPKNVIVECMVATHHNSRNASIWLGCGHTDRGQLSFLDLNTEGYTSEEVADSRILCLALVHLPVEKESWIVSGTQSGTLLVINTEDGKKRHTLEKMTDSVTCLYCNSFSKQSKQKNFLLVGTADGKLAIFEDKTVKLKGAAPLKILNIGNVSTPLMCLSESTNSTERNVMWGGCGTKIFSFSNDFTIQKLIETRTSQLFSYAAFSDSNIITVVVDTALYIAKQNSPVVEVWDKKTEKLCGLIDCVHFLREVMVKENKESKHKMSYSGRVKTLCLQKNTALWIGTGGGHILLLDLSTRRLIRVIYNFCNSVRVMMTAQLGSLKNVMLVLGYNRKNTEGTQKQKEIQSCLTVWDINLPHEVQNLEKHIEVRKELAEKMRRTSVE
Kind of experiment: LRRK2 Inhibition Mass Spectrometry Assay. The conditions noted are these: 60 nM LRRK2 enzyme; 25 uM LRRKtide; 20 uM ATP; read-out: LRRK2 Inhibition Mass Spectrometry Assay (pIC50) (converted). It is filed as biochemical. As for the experimental part:
A LRRK2 cDNA encoding residues 1326-2527 was received from Dundee University (described in M. Jaleel et al., 2007, Biochem J, 405: 407-417). This gene fragment was subcloned into pFB-HTb (Invitrogen) using BamHI and NotI restriction sites. The LRRK2 plasmid was recombined into the baculovirus genome according to the BAC-to-BAC protocol described by Invitrogen. Transfection into Spodoptera frugiperda (Sf9) insect cells was performed using Cellfectin (Invitrogen), according to the manufacturer's protocol to generate P1 and P2 baculovirus stocks.
Sf9 cells were grown in HyClone SFX (Thermo Scientific) growth media at 27° C., 80 rpm in shake flask until of a sufficient volume to inoculate a bioreactor. The cells were grown in a 20 liter working volume Wave bioreactor (GE Healthcare) at 27° C., 50% dissolved oxygen and an agitation rate 22 rocks per minute, 10 degree rock angle, 200 ml/min air with a cell concentration of approximately 6×e6 cells/ml. The cells were infected with P2 Baculovirus at a multiplicity of infection (MOI) of 3. The cultivation was continued for a 48 hour expression phase. The infected cells were removed from the growth media by centrifugation at 2500 g using a Sorvall RC 3C Plus centrifuge at 2500 g for 20 minutes. The cell pellet was immediately frozen and subsequently supplied for purification.
A 260 g pellet was allowed to thaw in a water bath at 27° C. with 800 ml lysis buffer/buffer A (50 mm Tris-HCl pH 8.5, 300 mM NaCl, 1 mm DTT, 10% glycerol, 1 ml/L calbiochem complete protease inhibitor cocktail and benzonase (50 ul/800 ml)) before being dounce homogenised on ice using 20 strokes per 100 ml. The suspension was packed in ice and sonicated at 50% amplitude for 3 min 10 sec on/off using a ¾″ probe. The suspension was then centrifuged at 100,000 g for 90 min, at 4° C.
The lysate (700 ml) was decanted from the insoluble pellet and contacted for 3 h at 4 C with 10 ml His bind Ni NTA resin by end over end mixing. The resin was recovered by centrifugation, 3000 g, 5 min at 4 C, and packed in an XK16 column. The column was then washed with 10 column volumes buffer A, 10 column volumes buffer B (buffer A+1M NaCl) and 10 column volumes buffer C (buffer A+20 mM imidazole). The column was then eluted with 15 column volumes buffer D (buffer A+300 mM imidazole) collecting 2 ml fractions. All washes and elution were conducted at 4 ml/min.
Fractions identified by SDS-PAGE as containing protein of interest were pooled and loaded directly onto a 320 ml SEC Superdex 200 pg column that was pre-equilibrated with buffer E (50 mM Tris-HCl pH 8.5, 300 mM NaCl, 10% glycerol, 1 mM DTT). The column was loaded and eluted with 1.2 column volumes buffer E at 2 ml/min collecting 2 ml fractions. Fractions identified by SDS-PAGE as containing protein of interest were tested for activity.
Production of LRRKtide for LRRK2 Inhibition Mass Spectrometry Assay
The ‘LRRKtide’ peptide H-RLGRDKYKTLRQIRQ-OH was synthesized as follows. The protected peptide was assembled on a solid-phase synthesiser using preloaded Wang resin and utilising standard Fmoc synthesis protocols. The crude peptide was obtained after cleavage from the resin with a mixture of trifluoroacetic acid (TFA), triisopropylsilane and water (95:2.5:2.5) for 3 hours at room temperature and was then purified using a C18 reverse-phase column utilising a 0.1% TFA-buffered water/acetonitrile gradient. The resulting fractions were analysed and fractions which were >95% pure by analytical HPLC and giving the correct molecular weight (mw) (by MALDiTOF mass spectroscopy) were pooled and freeze dried. The final material was analysed by HPLC and MALDiTOF mass spectroscopy.
LRRK2 Inhibition Mass Spectrometry Assay
This assay for Leucine Rich Repeat Kinase 2 (LRRK2) inhibition is based on the direct measurement of the peptide ‘LRRKtide’ (LRRKtide: RLGRDKYKT*LRQIRQ (H-RLGRDKYKTLRQIRQ-OH used for this screen)) and phosphorylated ‘LRRKtide’ using a high throughput RapidFire mass spectrometry assay. […]

`CCOc1nc(Nc2cnn(C3CN(C)CCC3(F)F)c2C)nc2[nH]ccc12` (single isomer, unassigned) [Example E121, N-(1-(4,4-difluoro-1-methylpiperidin-3-yl)-5-methyl-1H-pyrazol-4-yl)-4-ethoxy-7H-pyrrolo[2,3-d]pyrimidin-2-amine]: the IC50 is 10 nM.
Take `CCOc1nc(Nc2cnn(C3CN(C4COC4)CCO3)c2Cl)nc2[nH]ccc12` (single isomer, unassigned) [Example E141, N-(5-chloro-1-(4-(oxetan-3-yl)morpholin-2-yl)-1H-pyrazol-4-yl)-4-ethoxy-7H-pyrrolo[2,3-d]pyrimidin-2-amine]: the IC50 was 7.94 nM.
As for `CCOc1nc(Nc2cnn(C3CCOCC3C)c2C)nc2[nH]ccc12` (single isomer, unassigned) [Example E113, (cis)-4-ethoxy-N-(5-methyl-1-(3-methyltetrahydro-2H-pyran-4-yl)-1H-pyrazol-4-yl)-7H-pyrrolo[2,3-d]pyrimidin-2-amine], the figure is 10 nM.
With `CCOc1nc(Nc2cnn([C@H]3CCN(C4COC4)C[C@@H]3F)c2Cl)nc2[nH]ccc12` (single isomer, unassigned) [Example E104] the figure was 7.94 nM.
In the case of `CCOc1nc(Nc2cnn(CCN3CCO[C@H](C(F)F)C3)c2C)nc2[nH]ccc12` [Example E100, (S)—N-(1-(2-(2-(difluoromethyl)morpholino)ethyl)-5-methyl-1H-pyrazol-4-yl)-4-ethoxy-7H-pyrrolo[2,3-d]pyrimidin-2-amine], the IC50 was 7.94 nM.
As for `CCOc1nc(Nc2cnn(C3CN(C4COC4)CCC3(F)F)c2Cl)nc2[nH]ccc12` (single isomer, unassigned) [Example E124, N-(5-chloro-1-(4,4-difluoro-1-(oxetan-3-yl)piperidin-3-yl)-1H-pyrazol-4-yl)-4-ethoxy-7H-pyrrolo[2,3-d]pyrimidin-2-amine], the figure is 10 nM; as for `CCOc1nc(Nc2cnn(C3CCN(C4COC4)CC3(F)F)c2Cl)nc2[nH]ccc12` (single isomer, unassigned) [Example E134, N-(5-chloro-1-(3,3-difluoro-1-(oxetan-3-yl)piperidin-4-yl)-1H-pyrazol-4-yl)-4-ethoxy-7H-pyrrolo[2,3-d]pyrimidin-2-amine], 7.94 nM; as for `CCOc1nc(Nc2cnn([C@@H]3CCN(C4COC4)C[C@H]3F)c2Cl)nc2[nH]ccc12` (single isomer, unassigned) [Example E105], 7.94 nM.
Turning to `CCOc1nc(Nc2cnn(C3CC(N4CCOCC4)C3)c2C)nc2[nH]ccc12` (stereo not drawn) [Example E86, 4-ethoxy-N-(5-methyl-1-(3-morpholinocyclobutyl)-1H-pyrazol-4-yl)-7H-pyrrolo[2,3-d] pyrimidin-2-amine], the IC50 is 10 nM.
